{"source": "patent US11052154B2", "about": "“Ras protein degradation inducing molecule and pharmaceutical composition” (Tokyo University of Science Foundation, priority 2016, dated 2021)", "target": "T1, endogenous wild-type H-Ras protein (Homo sapiens, UniProt P01112)", "T1 construct": "an endogenous wild-type K-Ras protein and wild-type H-Ras protein; endogenous in cells; host or cells: HeLa", "T1 sequence (P01112 whole entry)": "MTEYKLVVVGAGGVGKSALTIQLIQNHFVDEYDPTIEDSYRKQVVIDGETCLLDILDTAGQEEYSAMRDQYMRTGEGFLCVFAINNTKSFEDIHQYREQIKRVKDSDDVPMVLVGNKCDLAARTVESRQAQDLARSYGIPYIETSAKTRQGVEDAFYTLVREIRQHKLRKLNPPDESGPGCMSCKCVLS", "experiment": "Degradation of endogenous wild-type H-Ras protein in HeLa cells, Western blot analysis", "assay_type": "cell-based", "settings": "48 hours after addition, vs control (DMSO), FIG. 5", "protocol": "In Example 6, degradation (knockdown) of an endogenous wild-type K-Ras protein and wild-type H-Ras protein in HeLa cells to which TUS-007 had been added was evaluated by Western blot analysis.\nHeLa cells were seeded in a 24-well plate at a cell density of 8×10^4 cells/well, and then cultured under conditions of 37° C. and 5 vol % CO2 for 16 hours.\nAfter 16 hours from cell seeding, TUS-007 was added to HeLa cells as follows. As a medium, a serum-free medium (37° C.) in which 1 mass % L-glutamine solution (Sigma-Aldrich) was added to D-MEM (high D-glucose, phenol red, sodium pyruvate (Wako Pure Chemical Industries, Ltd.)) was used. It is noted that the L-glutamine solution was added immediately before use. A DMSO solution containing TUS-007 was mixed with the medium so that the concentration of DMSO was 1 vol %, and added to each well at 500 μL/well, and cultured under conditions of 37° C. and 5 vol % CO2. As a control, DMSO was used. […]\nAfter electrophoresis, proteins were transferred to a PVDF membrane (Immobion™-P, Millipore) under conditions of 100 V and 2 hours using a tank-type blotting device and a transfer buffer (25 mM Tris-HCl, 195 mM glycine, 0.01% SDS, 15% methanol). […] Subsequently, the membrane was treated with a chemiluminescence reagent Immobilon™ Western (Millipore), and then chemiluminescence was detected using a lumino image analyzer LAS-3000 (FUJIFILM Corporation). […]", "data": [{"smiles": "CCC(C)[C@H](NC(=O)CCCCCCNC(=O)[C@H](CC(C)C)NC(=O)CNC(=O)c1cc(Cl)ccc1Cl)C(=O)Nc1ccc2[nH]c(Cc3c[nH]c4ccccc34)nc2c1", "note": "(stereo in doubt) [TUS-007]", "values": [{"measurement": "amount of the endogenous wild-type H-Ras protein (Western blot)", "result": "the amount of the endogenous wild-type K-Ras protein and wild-type H-Ras protein was reduced"}]}]}
